Results published in ChEMBL document CHEMBL1201862, “PubChem BioAssay data set” (2004).
Calls of active or inactive are those of the source.

Key:
[1] = biological target: T1, High affinity choline transporter 1 (Homo sapiens, UniProt Q9GZV3); experiment: CHT inhibitors, dose response, cell-based, 5-point CRC, membrane potential dye (AID 504840); type: functional
T1 sequence (Q9GZV3 whole entry): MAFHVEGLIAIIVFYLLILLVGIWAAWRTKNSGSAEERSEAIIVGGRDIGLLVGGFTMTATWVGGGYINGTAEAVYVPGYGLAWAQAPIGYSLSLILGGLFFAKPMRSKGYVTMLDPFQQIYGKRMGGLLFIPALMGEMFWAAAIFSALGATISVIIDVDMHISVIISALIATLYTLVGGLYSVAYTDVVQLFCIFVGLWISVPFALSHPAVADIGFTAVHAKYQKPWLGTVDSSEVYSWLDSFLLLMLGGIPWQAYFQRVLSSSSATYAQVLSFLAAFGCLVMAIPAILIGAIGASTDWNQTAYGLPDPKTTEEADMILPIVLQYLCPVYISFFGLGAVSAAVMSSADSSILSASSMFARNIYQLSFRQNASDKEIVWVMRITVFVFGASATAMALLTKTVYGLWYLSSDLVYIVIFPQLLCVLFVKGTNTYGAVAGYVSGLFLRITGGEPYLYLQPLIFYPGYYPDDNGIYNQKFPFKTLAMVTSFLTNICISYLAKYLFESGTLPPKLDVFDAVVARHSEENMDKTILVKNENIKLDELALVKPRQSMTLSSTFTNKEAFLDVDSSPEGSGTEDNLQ

[2] = cytotoxicity in HEK-293T cells, dose response, cytotoxicity control for TCR NF-kB inhibitor project, luminescence, T-cell screen hits (AID 489026); type: functional, cell-based;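 note: cells exposed to compound about 14 hours before the viability readout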
BJ [3] = experiment: cytotoxicity toward BJ-TERT-LT-ST fibroblasts, dose response, cell-based, RAS-independent, luminescence (AID 1935); type: functional; conditions: Homo sapiens;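 note: BJ fibroblasts immortalized with TERT plus LT and ST oncogenes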
BJ [4] = experiment: cells; type: functional, cell-based; conditions: Homo sapiens
[5] = cytotoxicity toward DRD oncogenic fibroblasts, dose response, cell-based, non-viral oncogenic, luminescence (AID 1934); type: functional; conditions: Homo sapiens
BJ [6] = experiment: cytotoxicity toward BJ-TERT fibroblasts, dose response, cell-based, RAS-independent, luminescence (AID 1933); type: functional; conditions: Homo sapiens
[7] = growth suppression of beta-catenin-knockout colon cells, dose response, cell-based, HCT116, human colon tumor (AID 1045); type: functional;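 note: HCT116 colon tumor cells with beta catenin knocked out; cells exposed to compound for 60 hours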
[8] = growth suppression of PTEN-null colon cells, dose response, cell-based, HCT116 PTEN knockout (AID 1047); type: functional;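 note: HCT116 colon tumor cells with PTEN knocked out; cells exposed to compound for 60 hours before readout; potency for loss of cell viability measured by luminescence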
Protein RecA = biological target: T2, Protein RecA (Mycobacterium tuberculosis, UniProt P9WHJ3); experiment: Fluorescence Cell-Free Homogeneous Dose Retest to Identify Inhibitors of RecA-Intein Splicing Activity. [Related pubchem assays (depositor defined):AID2097, AID2223, AID489010, AID492950]; type: functional
T2 sequence (P9WHJ3 whole entry): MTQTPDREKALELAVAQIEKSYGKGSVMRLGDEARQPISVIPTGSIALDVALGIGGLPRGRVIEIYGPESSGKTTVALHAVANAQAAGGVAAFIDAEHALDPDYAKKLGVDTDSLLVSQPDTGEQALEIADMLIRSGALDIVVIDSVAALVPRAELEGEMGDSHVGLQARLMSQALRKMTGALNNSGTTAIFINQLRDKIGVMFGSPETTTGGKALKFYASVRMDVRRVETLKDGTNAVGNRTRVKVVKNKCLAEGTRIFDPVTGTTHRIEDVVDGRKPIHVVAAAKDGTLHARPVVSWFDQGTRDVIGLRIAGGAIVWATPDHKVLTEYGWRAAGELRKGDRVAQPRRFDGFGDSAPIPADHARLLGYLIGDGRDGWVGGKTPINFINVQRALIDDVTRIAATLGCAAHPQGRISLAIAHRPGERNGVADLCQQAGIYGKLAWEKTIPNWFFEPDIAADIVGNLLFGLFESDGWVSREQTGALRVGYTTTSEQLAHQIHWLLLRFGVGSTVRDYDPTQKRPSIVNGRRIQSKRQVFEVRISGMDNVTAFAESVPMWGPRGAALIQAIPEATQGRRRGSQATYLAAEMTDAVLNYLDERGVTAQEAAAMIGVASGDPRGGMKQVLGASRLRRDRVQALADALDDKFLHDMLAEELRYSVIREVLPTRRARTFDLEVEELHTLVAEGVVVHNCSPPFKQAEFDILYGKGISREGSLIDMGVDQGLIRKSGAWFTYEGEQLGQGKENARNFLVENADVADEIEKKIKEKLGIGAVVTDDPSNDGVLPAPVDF

[9] = biological target: T3, Replicative DNA helicase DnaB (Mycobacterium tuberculosis, UniProt P9WMR3); experiment: DnaB intein splicing inhibitors, dose response, biochemical, cell-free fluorescence (AID 449749); type: functional
T3 sequence (P9WMR3 whole entry): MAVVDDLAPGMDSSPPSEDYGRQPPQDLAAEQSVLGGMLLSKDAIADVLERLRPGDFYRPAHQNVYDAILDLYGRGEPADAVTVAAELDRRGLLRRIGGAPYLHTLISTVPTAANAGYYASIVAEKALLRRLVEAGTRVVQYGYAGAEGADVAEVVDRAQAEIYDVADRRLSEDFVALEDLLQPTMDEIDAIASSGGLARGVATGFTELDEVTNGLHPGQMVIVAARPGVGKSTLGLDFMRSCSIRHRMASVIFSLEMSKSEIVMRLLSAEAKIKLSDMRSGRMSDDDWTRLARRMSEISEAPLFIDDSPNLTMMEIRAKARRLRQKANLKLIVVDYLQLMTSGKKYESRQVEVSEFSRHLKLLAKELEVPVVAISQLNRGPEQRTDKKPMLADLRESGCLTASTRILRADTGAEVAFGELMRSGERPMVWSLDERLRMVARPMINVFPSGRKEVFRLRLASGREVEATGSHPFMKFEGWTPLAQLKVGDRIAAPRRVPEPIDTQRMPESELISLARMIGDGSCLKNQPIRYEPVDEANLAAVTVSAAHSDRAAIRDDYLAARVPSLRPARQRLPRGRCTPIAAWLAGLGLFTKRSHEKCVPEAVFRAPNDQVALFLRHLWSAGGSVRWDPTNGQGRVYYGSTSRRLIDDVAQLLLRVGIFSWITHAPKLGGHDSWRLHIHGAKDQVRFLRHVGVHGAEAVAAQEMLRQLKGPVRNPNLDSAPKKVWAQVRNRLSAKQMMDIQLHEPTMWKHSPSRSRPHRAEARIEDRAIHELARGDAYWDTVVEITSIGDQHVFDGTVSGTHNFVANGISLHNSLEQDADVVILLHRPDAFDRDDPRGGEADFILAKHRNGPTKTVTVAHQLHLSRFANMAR

[10] = inhibitors of PGC1a acetylation in cells, dose response, cell-based, cherry-picked samples (AID 720514); type: functional;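 note: potency may reflect raised or lowered acetylation signal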
P388 = experiment: cells; type: functional; conditions: Mus musculus
SN12K1 = experiment: cells; type: functional; conditions: Homo sapiens
P388/ADR = experiment: cells; type: functional; conditions: Mus musculus
Cytochrome P450 2C9 = Cytochrome P450 2C9 (Homo sapiens, UniProt P11712)
[11] = inhibitors of clade B AD8 Env fusion, dose response, cell-based, cherry-pick (AID 652062); type: functional;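 note: luciferase signal from cell-cell fusion driven by HIV-1 clade B AD8 Env; potency is for inhibitors of fusion seen as a drop in luminescence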
[12] = ZM109 Env clade C HIV-1 fusion inhibitors, dose response, HeLa effector, CEM target cells, luciferase, cherry-pick (AID 652058); type: functional, cell-based
[13] = inhibitors of HIV Env-driven cell fusion, dose response, cherry-pick (AID 652057); type: functional, cell-based
Cytochrome P450 2C19 = Cytochrome P450 2C19 (Homo sapiens, UniProt P33261); experiment: Cytochrome panel assay with activity outcomes. Panel member name: p450-cyp2c19 Compounds with AC50 equal or less than 10 uM are considered active; type: functional
Cytochrome P450 1A2 = biological target: T4, Cytochrome P450 1A2 (Homo sapiens, UniProt P05177);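 note: PubChem cytochrome P450 panel assay, CYP1A2 panel member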
T4 sequence (P05177 whole entry): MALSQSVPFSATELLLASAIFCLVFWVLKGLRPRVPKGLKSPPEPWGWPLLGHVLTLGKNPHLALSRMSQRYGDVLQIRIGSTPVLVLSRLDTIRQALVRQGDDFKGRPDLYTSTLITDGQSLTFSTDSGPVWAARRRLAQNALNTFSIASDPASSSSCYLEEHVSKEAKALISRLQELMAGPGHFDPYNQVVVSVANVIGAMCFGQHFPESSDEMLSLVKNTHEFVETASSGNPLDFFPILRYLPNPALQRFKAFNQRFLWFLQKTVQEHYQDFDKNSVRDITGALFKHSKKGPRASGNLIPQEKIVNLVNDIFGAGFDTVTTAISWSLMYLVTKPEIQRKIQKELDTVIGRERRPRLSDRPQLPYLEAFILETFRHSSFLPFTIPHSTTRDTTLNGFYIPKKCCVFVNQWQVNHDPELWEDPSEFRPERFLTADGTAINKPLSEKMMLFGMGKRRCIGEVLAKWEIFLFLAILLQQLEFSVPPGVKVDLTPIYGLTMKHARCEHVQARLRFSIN

Cytochrome P450 3A4 = Cytochrome P450 3A4 (Homo sapiens, UniProt P08684);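 note: CYP3A4 tested as one member of a cytochrome P450 panel screen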
Cytochrome P450 2D6 = Cytochrome P450 2D6 (Homo sapiens, UniProt P10635);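 note: CYP2D6 member of a cytochrome P450 panel assay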
Chain of Cytochrome P450 2D6 (P10635 whole entry): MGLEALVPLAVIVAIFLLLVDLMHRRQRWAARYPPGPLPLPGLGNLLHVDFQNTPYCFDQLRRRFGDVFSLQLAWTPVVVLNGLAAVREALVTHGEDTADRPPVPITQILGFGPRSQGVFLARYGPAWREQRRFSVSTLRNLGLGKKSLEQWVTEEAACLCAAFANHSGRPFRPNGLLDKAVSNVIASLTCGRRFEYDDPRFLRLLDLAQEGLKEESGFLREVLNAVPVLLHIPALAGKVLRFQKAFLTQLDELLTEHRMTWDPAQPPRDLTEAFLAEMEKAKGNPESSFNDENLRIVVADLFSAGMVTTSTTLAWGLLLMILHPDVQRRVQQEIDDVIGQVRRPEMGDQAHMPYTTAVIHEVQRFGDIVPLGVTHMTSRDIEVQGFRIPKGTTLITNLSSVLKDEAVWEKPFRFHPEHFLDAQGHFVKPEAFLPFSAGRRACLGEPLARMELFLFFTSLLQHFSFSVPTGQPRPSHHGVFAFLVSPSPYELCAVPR

Chain of Cytochrome P450 2C9 (P11712 whole entry, the tested form may be a part): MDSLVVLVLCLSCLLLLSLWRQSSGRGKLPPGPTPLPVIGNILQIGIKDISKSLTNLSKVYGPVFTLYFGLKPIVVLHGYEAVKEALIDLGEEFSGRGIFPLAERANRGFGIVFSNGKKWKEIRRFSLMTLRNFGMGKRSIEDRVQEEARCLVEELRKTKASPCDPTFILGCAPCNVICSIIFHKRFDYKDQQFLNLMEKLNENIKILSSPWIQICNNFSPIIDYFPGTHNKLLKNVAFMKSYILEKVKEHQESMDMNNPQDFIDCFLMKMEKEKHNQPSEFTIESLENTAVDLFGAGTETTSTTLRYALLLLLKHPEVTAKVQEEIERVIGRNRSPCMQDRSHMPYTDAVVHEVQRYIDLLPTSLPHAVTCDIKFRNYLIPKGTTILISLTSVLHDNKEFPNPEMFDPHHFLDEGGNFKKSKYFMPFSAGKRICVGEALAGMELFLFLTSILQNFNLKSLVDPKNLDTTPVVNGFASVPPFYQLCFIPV
Chain of Cytochrome P450 2C19 (P33261 whole entry): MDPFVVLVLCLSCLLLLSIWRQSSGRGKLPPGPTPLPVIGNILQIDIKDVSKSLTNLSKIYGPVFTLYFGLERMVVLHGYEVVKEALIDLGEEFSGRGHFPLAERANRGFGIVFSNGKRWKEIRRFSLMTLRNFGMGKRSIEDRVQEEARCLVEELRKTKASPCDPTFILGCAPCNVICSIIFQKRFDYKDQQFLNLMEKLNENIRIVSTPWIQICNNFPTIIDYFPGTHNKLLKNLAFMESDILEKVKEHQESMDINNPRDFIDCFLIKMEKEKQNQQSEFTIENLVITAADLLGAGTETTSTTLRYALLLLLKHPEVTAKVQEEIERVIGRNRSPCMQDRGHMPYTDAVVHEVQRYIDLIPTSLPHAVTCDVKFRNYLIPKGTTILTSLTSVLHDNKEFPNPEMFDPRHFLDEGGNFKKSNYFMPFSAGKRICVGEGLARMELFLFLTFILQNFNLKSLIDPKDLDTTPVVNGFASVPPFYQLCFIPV
Chain of Cytochrome P450 3A4 (P08684 whole entry): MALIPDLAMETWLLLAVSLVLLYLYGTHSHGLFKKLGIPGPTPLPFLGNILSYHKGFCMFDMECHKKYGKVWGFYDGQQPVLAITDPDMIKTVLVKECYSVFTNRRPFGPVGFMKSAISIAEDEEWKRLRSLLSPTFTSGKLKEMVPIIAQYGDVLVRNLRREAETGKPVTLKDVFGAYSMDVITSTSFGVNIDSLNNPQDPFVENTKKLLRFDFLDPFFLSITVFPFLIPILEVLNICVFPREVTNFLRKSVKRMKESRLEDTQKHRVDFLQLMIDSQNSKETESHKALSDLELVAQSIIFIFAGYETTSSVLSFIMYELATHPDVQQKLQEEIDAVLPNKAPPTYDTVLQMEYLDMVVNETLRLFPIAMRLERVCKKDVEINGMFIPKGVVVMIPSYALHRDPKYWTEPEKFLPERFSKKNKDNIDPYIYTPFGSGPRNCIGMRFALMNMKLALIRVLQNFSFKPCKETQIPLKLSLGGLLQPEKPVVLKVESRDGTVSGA

With `O=C(NNC(=S)Nc1ccccc1)c1cc(Br)ccc1Cl` the IC50 [1] was 12.6 µM (active).

With `Cc1ccc(C(=O)c2cc([N+](=O)[O-])ccc2N2CCOCC2)cc1C` the IC50 [2] was > 80 µM (inactive), the EC50 (BJ [3]) was 1.75 µM (active) and the EC50 (BJ [4]) was 73.8 µM (inconclusive). For the same compound, the EC50 [5] was 1.6 µM (inconclusive) and the EC50 (BJ [6]) was 3.06 µM (active).

For `Cc1ccc(Cn2ncc(Cl)c(Cl)c2=O)cc1`, the EC50 [7] was 7.68 µM (active), the EC50 [8] was 10.5 µM (active) and the EC50 (Protein RecA) was 7.65 µM (active). The AC50 [9] was 14.3 µM (active) and the AC50 [10] was 8.4 µM (active).

With `O=NN(CCF)C(=O)NC1CCSCC1` the GI50 (P388) was > 100 µM (inactive), the GI50 (SN12K1) was > 100 µM (inactive) and the GI50 (P388/ADR) was > 100 µM (inactive).

For `O=Cc1c(Br)[nH]c2ccccc12`, the GI50 (P388) was > 55.5 µM (inactive), the GI50 (SN12K1) was > 100 µM (inactive) and the GI50 (P388/ADR) was 68.9 µM (inactive).

For `C[C@H]1CCCCO[C@H](CN(C)Cc2ccc3c(c2)OCO3)[C@@H](C)CN([C@@H](C)CO)C(=O)c2cc(NC(=O)Nc3ccc(C(F)(F)F)cc3)ccc2O1`, the AC50 [10] was 12.1 µM (active).

In the case of `CSc1ccccc1N1CCN(C(=O)Nc2ccc3c(c2)NC(=O)CO3)CC1`, the AC50 (Cytochrome P450 2C9) is reported as “inconclusive”.

In the case of `COc1ccc(NC(=O)Nc2ccc3c(c2)CC(=O)N([C@H](C)CO)C[C@H](C)[C@H](CN(C)S(=O)(=O)c2ccccc2)O3)cc1`, the AC50 [11] is reported as 0.981 µM (active), the AC50 [12] is reported as < 0.26 µM (active) and the AC50 [13] is reported as < 0.26 µM (active).

With `CCCCSCC(NC(=O)/C=C/c1c(C)[nH]c(=O)[nH]c1=O)C(=O)OC` (configuration not stated) the GI50 (P388) was 55.2 µM (inactive), the GI50 (SN12K1) was 17.6 µM (inactive) and the GI50 (P388/ADR) was 141 µM (inactive).

With `COc1cc(/C=C/C(=O)Oc2ccc(NC(C)=O)cc2)ccc1C(=O)OCc1ccccc1` the GI50 (P388) was 2.28 µM (inactive), the GI50 (SN12K1) was 36.5 µM (inactive) and the GI50 (P388/ADR) was 0.69 µM (active).

With `COCCNC(=O)c1cc(-c2cccc(OC)c2)on1` the AC50 (Cytochrome P450 2C19; read-out: AC50) was 28.2 µM (inconclusive) and the AC50 (Cytochrome P450 2C9) was “inconclusive”.

For `CC1(C)CC23C4COC(=O)C2CCC1C3CC4=O` (configuration not stated), the GI50 (P388) was 2.9 µM (inactive), the GI50 (SN12K1) was 14.4 µM (inactive) and the GI50 (P388/ADR) was 1.5 µM (inactive).

With `COc1cccc2c1C(=O)c1c(O)c3c(c(O)c1C2=O)C[C@@](O)(C(=O)CO)C[C@@H]3OC1CC(N)CC(C)O1` (some centres not stated) the GI50 (P388) was 0.0349 µM (active), the GI50 (SN12K1) was 0.02 µM (active) and the GI50 (P388/ADR) was 0.367 µM (active).

For `CCOc1cc(C#N)c(NC(=O)c2cccnc2)cc1OCC`, the IC50 [2] was > 80 µM (inactive) and the AC50 (Cytochrome P450 2C9) was “inconclusive”.

With `Cc1ccc2c(c1)N(CCC(=O)N1CCC3(CC1)OCCO3)C(=O)C(C)O2` (configuration not stated) the AC50 (Cytochrome P450 2C9) was “inconclusive” and the AC50 (Cytochrome P450 1A2) was 0.00631 µM (inconclusive).

For `C[C@@H](COc1ccc(/C=C\c2ccccc2)cc1)[N+](C)(C)C`, the AC50 (Cytochrome P450 2C19) was “inconclusive”, the AC50 (Cytochrome P450 3A4) was 10 µM (inconclusive) and the AC50 (Cytochrome P450 2C9) was “inconclusive”. The AC50 (Cytochrome P450 2D6) was 3.16 µM (inconclusive).

With `COc1ccc(C2=NOC(C(=O)NCc3ccco3)C2)cc1OC` (configuration not stated) the AC50 (Cytochrome P450 2C19) was “inconclusive”, the AC50 (Cytochrome P450 2C9) was “inconclusive” and the AC50 (Cytochrome P450 1A2) was 39.8 µM (inconclusive).

In the case of `O=C(C[C@H]1C[C@@H]2c3cc(NS(=O)(=O)c4ccc(F)cc4)ccc3O[C@@H]2[C@H](CO)O1)NCCc1ccccc1`, the AC50 [11] is reported as 8.44 µM (active), the AC50 [12] is reported as 1.2 µM (active) and the AC50 [13] is reported as 0.666 µM (active).

In the case of `Cc1ccc(C2CC2c2nnc(S)n2-c2ccc(Cl)cc2)cc1` (configuration not stated), the AC50 [10] is reported as 37.2 µM (active).

In the case of `COc1nc(O)c(N)c(NC2OC(CO)C(O)C(O)C2O)n1` (configuration not stated), the GI50 (P388) is reported as 13.3 µM (inactive), the GI50 (SN12K1) is reported as > 100 µM (inactive) and the GI50 (P388/ADR) is reported as 38.5 µM (inactive).

With `CCc1ccccc1NC(=O)c1nnn(CC(=O)Nc2ccccc2C)c1N` the AC50 (Cytochrome P450 3A4) was 25.1 µM (inconclusive) and the AC50 (Cytochrome P450 2C9) was “inconclusive”.

In the case of `O=C(O)/C(=C\c1ccccc1OC(F)F)Sc1nnc(-c2ccc(F)cc2)o1`, the IC50 [1] is reported as 19.1 µM (active).
